Common to all, as to format: biochemical
For one assay, the target named is T1, Human Factor XIIa (Homo sapiens, UniProt P00748).
T1 construct: Proteolytic cleavage of FXII to heavy and light chains of FXIIa dramatically increases catalytic activity; purchased Enzyme Research Laboratories
T1 sequence (P00748 373-615 limits assumed): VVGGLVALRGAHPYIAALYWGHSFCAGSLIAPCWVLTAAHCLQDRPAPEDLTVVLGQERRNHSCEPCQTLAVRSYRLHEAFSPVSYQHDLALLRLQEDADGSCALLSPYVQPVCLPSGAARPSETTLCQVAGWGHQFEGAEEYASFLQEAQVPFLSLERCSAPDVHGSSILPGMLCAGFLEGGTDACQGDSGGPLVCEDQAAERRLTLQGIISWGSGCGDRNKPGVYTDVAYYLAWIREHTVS
T1 sequence (P00748 20-372 partner limits assumed): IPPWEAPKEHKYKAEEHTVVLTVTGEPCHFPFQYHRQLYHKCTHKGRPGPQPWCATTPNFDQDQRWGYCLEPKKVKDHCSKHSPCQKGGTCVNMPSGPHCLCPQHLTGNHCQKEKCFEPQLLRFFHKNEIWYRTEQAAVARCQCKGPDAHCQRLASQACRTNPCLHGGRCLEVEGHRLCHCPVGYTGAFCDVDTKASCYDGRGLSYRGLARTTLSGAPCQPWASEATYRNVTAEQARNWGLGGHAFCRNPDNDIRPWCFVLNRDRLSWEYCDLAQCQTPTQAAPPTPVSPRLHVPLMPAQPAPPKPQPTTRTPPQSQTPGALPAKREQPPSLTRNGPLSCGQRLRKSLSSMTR
Nature of the assay: Determination of FXIIa inhibition (fluorogenic substrate H-DPro-Phe-Arg-AFC, IC50 assay). As to conditions: substrate at Km concentration, 25° C.; category scale; read-out: Human FXII IC50 (nm). The gist of the method:
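At substrate Km and 25° C., the rate of AFC release from H-DPro-Phe-Arg-AFC by human Factor XIIa was followed for 5 min across compound concentrations. Inhibition was derived as percent of uninhibited rate, giving IC50.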

The next assay concerns the target T2, Plasma Kallikrein (Homo sapiens, UniProt P03952).
T2 construct: FXIIa converts plasma prekallikrein (PK) to plasma kallikrein (PKa)
In words: Related protease inhibition: Plasma Kallikrein (fluorogenic substrate at Km). As to conditions: class symbols per Table 18, read-out: IC50 (human PKal). In outline: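 Read-out is the linear per-minute rise in fluorescence liberated from substrate, monitored for 5 min at 25° C and expressed as % activity. Substrate sat at Km, except for FXIa, which used 100 μM. IC50 values come from the concentration producing half-maximal inhibition.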

The next assay deals with Plasmin (Homo sapiens, UniProt P00747). Nature of the assay: Related protease inhibition: Plasmin (fluorogenic substrate at Km). As to conditions: class symbols per Table 18. As for the experimental part: (§1) In vitro inhibition of related proteases was determined using an IC50 assay based on standard literature methods (see e.g. Shori et al., Biochem. Pharmacol., 1992, 43, 1209; Bouckaert et al., European Journal of Medicinal Chemistry 110 (2016) 181). Human serine protease enzyme Plasma Kallikrein, KLK1, FXa, Plasmin, Thrombin and Trypsin were assayed for enzymatic activity using an appropriate fluorogenic substrate at Km concentration, FXIa at fixed substrate concentration of 100 μM and various concentrations of the test compound. Protease activity was measured by monitoring the accumulation of liberated fluorescence from the substrate over 5 min at 25° C. The linear rate of fluorescence increase per minute was expressed as percentage (%) activity. IC50 values were calculated as the concentration of inhibitor giving 50% inhibition of the uninhibited enzyme activity (100%).

A further assay concerns the target Thrombin (Homo sapiens, UniProt P00734). In words: Related protease inhibition: Thrombin (fluorogenic substrate at Km). As to conditions: class symbols per Table 18. The method, then:
as §1

The next assay has as its target FXa (Homo sapiens, UniProt P00742). Nature of the assay: Related protease inhibition: FXa (fluorogenic substrate at Km). The conditions noted are these: class symbols per Table 18. In outline: (§2)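 Protease activity against a fluorogenic substrate (Km level; 100 μM fixed for FXIa) is measured at 25° C across various inhibitor concentrations. Liberated fluorescence is tracked for 5 min, and slopes are expressed relative to uninhibited enzyme to give the IC50.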

Another assay deals with Trypsin (Homo sapiens, UniProt P07477). In words: Related protease inhibition: Trypsin (fluorogenic substrate at Km). The conditions noted are these: class symbols per Table 18. The method, then: as §1
In another assay the target is KLK1 (Homo sapiens, UniProt P06870). Nature of the assay: Related protease inhibition: KLK1 (fluorogenic substrate at Km). The conditions noted are these: class symbols per Table 18. In outline: as §2

This note sets out measurements from patent publication US20240327412A1, “FACTOR XIIA INHIBITORS” (KALVISTA PHARMACEUTICALS LIMITED, priority 2021, published 2024).

By IC50 is commonly meant the concentration at which inhibition is half-maximal.

Chain of KLK1 (P06870 25-262): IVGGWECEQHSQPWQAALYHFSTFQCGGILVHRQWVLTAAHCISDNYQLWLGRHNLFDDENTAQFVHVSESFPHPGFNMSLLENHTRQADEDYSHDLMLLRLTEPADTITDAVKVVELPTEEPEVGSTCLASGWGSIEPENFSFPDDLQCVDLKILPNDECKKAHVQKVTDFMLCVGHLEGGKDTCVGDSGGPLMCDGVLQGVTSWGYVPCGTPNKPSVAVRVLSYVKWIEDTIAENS
Chain of Plasmin (P00747 581-810 limits assumed): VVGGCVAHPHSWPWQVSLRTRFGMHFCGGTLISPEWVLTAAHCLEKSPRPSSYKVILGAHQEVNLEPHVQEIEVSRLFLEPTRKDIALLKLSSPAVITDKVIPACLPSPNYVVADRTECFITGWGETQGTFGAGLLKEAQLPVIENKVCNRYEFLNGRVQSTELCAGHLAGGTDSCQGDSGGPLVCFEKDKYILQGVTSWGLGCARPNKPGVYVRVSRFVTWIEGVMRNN
Chain of Plasmin (P00747 97-580 partner limits assumed): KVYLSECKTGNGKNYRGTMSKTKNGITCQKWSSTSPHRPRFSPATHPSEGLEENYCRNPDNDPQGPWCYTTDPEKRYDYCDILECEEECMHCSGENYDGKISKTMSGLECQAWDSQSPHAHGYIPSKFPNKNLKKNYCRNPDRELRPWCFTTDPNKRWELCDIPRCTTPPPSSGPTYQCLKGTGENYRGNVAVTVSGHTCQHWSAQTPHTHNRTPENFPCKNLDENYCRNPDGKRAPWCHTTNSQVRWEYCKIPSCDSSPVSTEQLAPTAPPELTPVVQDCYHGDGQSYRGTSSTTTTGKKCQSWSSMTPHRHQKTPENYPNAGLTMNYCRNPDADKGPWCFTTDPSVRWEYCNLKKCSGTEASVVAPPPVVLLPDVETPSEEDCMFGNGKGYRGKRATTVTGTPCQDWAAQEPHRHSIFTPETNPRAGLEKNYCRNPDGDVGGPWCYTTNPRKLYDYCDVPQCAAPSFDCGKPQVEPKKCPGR
Chain of FXa (P00742 235-488 limits assumed): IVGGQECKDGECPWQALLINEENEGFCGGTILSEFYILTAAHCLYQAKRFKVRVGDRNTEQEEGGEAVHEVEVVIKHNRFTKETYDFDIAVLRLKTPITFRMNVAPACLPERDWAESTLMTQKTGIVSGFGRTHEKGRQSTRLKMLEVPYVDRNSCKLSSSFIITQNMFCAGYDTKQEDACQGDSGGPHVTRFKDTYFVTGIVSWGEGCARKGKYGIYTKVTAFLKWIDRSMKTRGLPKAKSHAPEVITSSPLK
Chain of FXa (P00742 41-179 partner limits assumed): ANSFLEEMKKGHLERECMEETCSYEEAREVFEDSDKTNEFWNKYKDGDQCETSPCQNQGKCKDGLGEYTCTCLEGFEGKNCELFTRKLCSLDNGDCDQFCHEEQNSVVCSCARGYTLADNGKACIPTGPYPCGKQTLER
T2 sequence (P03952 391-638 limits assumed): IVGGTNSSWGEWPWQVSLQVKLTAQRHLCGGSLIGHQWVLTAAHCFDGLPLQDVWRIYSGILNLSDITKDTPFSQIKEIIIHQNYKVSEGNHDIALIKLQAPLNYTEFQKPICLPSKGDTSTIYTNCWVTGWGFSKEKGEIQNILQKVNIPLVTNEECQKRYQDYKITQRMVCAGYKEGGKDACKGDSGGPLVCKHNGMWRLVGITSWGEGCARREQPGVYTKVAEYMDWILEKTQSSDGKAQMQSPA
T2 sequence (P03952 20-390 partner limits assumed): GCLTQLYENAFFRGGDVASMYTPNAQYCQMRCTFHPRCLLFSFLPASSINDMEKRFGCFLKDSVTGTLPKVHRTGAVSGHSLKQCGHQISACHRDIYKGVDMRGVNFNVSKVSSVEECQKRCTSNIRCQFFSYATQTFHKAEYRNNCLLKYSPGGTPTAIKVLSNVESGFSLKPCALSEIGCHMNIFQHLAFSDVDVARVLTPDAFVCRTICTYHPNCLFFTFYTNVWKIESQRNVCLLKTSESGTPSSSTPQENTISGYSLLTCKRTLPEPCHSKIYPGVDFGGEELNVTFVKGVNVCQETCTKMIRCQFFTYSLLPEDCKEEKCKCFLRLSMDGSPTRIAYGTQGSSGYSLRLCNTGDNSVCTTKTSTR

Take `Cc1cnc2ccc(OCC34CC(CNc5cccc6c(N)nccc56)(CO3)C4)cn12` [Example 2212, N5-((1-(((3-methylimidazo[1,2-a]pyridin-6-yl)oxy)methyl)-2-oxabicyclo[2.1.1]hexan-4-yl)methyl)isoquinoline-1,5-diamine]: the half-inhibitory concentration (IC50) at Human Factor XIIa is 0.01 to 0.1 µM; on Plasma Kallikrein it was 10 to 40 µM; against Plasmin it was more than 40 µM; on Thrombin it was more than 40 µM; against FXa, 10 to 40 µM; against Trypsin it was 10 to 40 µM. Besides, the IC50 against KLK1 fell in the range of 1 to 3 µM.
As to `CN1Cc2cc(OCC34COC(CNc5cccc6c(N)nccc56)(C3)C4)ccc2C1=O` [Example 6621, 5-((1-(((1-aminoisoquinolin-5-yl)amino)methyl)-2-oxabicyclo[2.1.1]hexan-4-yl)methoxy)-2-methylisoindolin-1-one], the IC50 is 0.1 to 0.3 µM on Human Factor XIIa; more than 40 µM at Plasma Kallikrein; more than 40 µM at Plasmin; more than 40 µM against Thrombin; more than 40 µM at FXa; more than 40 µM at Trypsin. At KLK1, this compound gave an IC50 of 3 to 10 µM.
Regarding `Nc1nccc2c(NCC34CC(COc5ccc6nnc(C(F)F)n6c5)(CO3)C4)cccc12` [Example 6620, N5-((4-(((3-(difluoromethyl)-[1,2,4]triazolo[4,3-a]pyridin-6-yl)oxy)methyl)-2-oxabicyclo[2.1.1]hexan-1-yl)methyl)isoquinoline-1,5-diamine], the IC50 was 0.3 to 1 µM on Human Factor XIIa; more than 40 µM on Plasma Kallikrein; more than 40 µM on Plasmin; more than 40 µM at Thrombin; more than 40 µM on FXa; 3 to 10 µM against Trypsin. On KLK1, this compound gave an IC50 of 3 to 10 µM.
In the case of `Cn1ccc(OCC23CN(C(=O)NCc4ccccc4)C(CNc4cccc5c(N)nccc45)(C2)C3)cc1=O` [Example 12017, 1-(((1-aminoisoquinolin-5-yl)amino)methyl)-N-benzyl-4-(((1-methyl-2-oxo-1,2-dihydropyridin-4-yl)oxy)methyl)-2-azabicyclo[2.1.1]hexane-2-carboxamide], the 50% inhibitory concentration (IC50) at Plasma Kallikrein was 10 to 40 µM; against Plasmin it was 10 to 40 µM; against Thrombin, more than 40 µM; against FXa, 10 to 40 µM; against Trypsin, more than 40 µM; against KLK1, 3 to 10 µM.
Consider `Cn1ccc(OCC23CC(CNc4cccc5c(N)nccc45)(CCO2)C3)cc1=O` [Example 11001, 4-((5-(((1-aminoisoquinolin-5-yl)amino)methyl)-2-oxabicyclo[3.1.1]heptan-1-yl)methoxy)-1-methylpyridin-2(1H)-one], for which the IC50 is 0.1 to 0.3 µM at Human Factor XIIa; more than 40 µM on Plasma Kallikrein; more than 40 µM on Plasmin; more than 40 µM against Thrombin; more than 40 µM against FXa; 10 to 40 µM on Trypsin. This compound also showed an IC50 at KLK1 of 10 to 40 µM.
As for `Cn1ccc(OCC23CN(CCCc4ccccc4)C(CNc4cccc5c(N)nccc45)(C2)C3)cc1=O` [Example 12019, 4-((1-(((1-Aminoisoquinolin-5-yl)amino)methyl)-2-(3-phenylpropyl)-2-azabicyclo[2.1.1]hexan-4-yl)methoxy)-1-methylpyridin-2(1H)-one], the IC50 on Human Factor XIIa was 0.01 to 0.1 µM; at Plasma Kallikrein, more than 40 µM; against Plasmin it was more than 40 µM; on Thrombin it was more than 40 µM; against FXa, more than 40 µM; against Trypsin it was more than 40 µM. In addition, the IC50 against KLK1 was 1 to 3 µM.
In the case of `Cc1cc(OCC23CCOC(CNc4cccc5c(N)nccc45)(C2)C3)cc(=O)n1C` [Example 10928, 4-((1-(((1-Aminoisoquinolin-5-yl)amino)methyl)-2-oxabicyclo[3.1.1]heptan-5-yl)methoxy)-1,6-dimethylpyridin-2(1H)-one], the IC50 was 0.01 to 0.1 µM on Human Factor XIIa; more than 40 µM on Plasma Kallikrein; more than 40 µM against Plasmin; more than 40 µM at Thrombin; 10 to 40 µM at FXa; 10 to 40 µM on Trypsin. The concentration for half-maximal inhibition (IC50) at KLK1 fell in the range of 10 to 40 µM.
Regarding `Cn1ccc(OCC23CCOC(CNc4cccc5c(N)nccc45)(C2)C3)nc1=O` [Example 10940, 4-((1-(((1-aminoisoquinolin-5-yl)amino)methyl)-2-oxabicyclo[3.1.1]heptan-5-yl)methoxy)-1-methylpyrimidin-2(1H)-one], the IC50 was 0.1 to 0.3 µM on Human Factor XIIa; more than 40 µM on Plasma Kallikrein; more than 40 µM against Plasmin; more than 40 µM against Thrombin; more than 40 µM against FXa; 10 to 40 µM against Trypsin. On KLK1, this compound returned an IC50 of 10 to 40 µM.
For `Nc1nccc2c(NCC34CC(COc5ccc6c(c5)CNC6=O)(CO3)C4)cccc12` [Example 6618, 5-[[1-[[(1-Aminoisoquinolin-5-yl)amino]methyl]-2-oxabicyclo[2.1.1]hexan-4-yl]methoxy]-2,3-dihydroisoindol-1-one], the 50% inhibitory concentration (IC50) on Human Factor XIIa is 0.01 to 0.1 µM; at Plasma Kallikrein, more than 40 µM; on Plasmin, more than 40 µM; on Thrombin, more than 40 µM; against FXa, 10 to 40 µM; at Trypsin it was 10 to 40 µM. The IC50 at KLK1 lay within 3 to 10 µM.
As for `Nc1nccc2c(NCC34CC(COc5ccn6cnnc6c5)(CCO3)C4)cccc12` [Example 10926, 5-N-[[5-([1,2,4]Triazolo[4,3-a]pyridin-7-yloxymethyl)-2-oxabicyclo[3.1.1]heptan-1-yl]methyl]isoquinoline-1,5-diamine], the IC50 on Human Factor XIIa was 0.01 to 0.1 µM; on Plasma Kallikrein, more than 40 µM; against Plasmin it was more than 40 µM; at Thrombin, more than 40 µM; against FXa, more than 40 µM; at Trypsin, 3 to 10 µM. The compound further returned a half-maximal inhibitory concentration (IC50) against KLK1 of 3 to 10 µM.
Regarding `Cn1ccc(OCC23CC(CNc4cccc5c(N)nccc45)(CO2)C3)cc1=O` [Example 2205, 4-((4-(((1-aminoisoquinolin-5-yl)amino)methyl)-2-oxabicyclo[2.1.1]hexan-1-yl)methoxy)-1-methylpyridin-2(1H)-one], the half-maximal inhibitory concentration (IC50) on Human Factor XIIa was 0.3 to 1 µM; at Plasma Kallikrein it was more than 40 µM; on Plasmin, more than 40 µM; against Thrombin, more than 40 µM; on FXa, more than 40 µM; against Trypsin, more than 40 µM. At KLK1, this compound gave an IC50 of 10 to 40 µM.
For `Nc1nccc2c(NCC34CC(COc5ccn6cnnc6c5)(CO3)C4)cccc12` [Example 6629, N5-((4-(([1,2,4]triazolo[4,3-a]pyridin-7-yloxy)methyl)-2-oxabicyclo[2.1.1]hexan-1-yl)methyl)isoquinoline-1,5-diamine], the IC50 on Human Factor XIIa is 0.01 to 0.1 µM; on Plasma Kallikrein, more than 40 µM; on Plasmin, 10 to 40 µM; against Thrombin, more than 40 µM; on FXa, more than 40 µM; against Trypsin it was 10 to 40 µM. Further, the IC50 against KLK1 fell in the range of 1 to 3 µM.
Turning to `Cc1cc(OCC23CN(C(=O)NCc4ccccc4)C(CNc4cccc5c(N)nccc45)(C2)C3)cc(=O)n1C` [Example 12038, 1-(((1-aminoisoquinolin-5-yl)amino)methyl)-N-benzyl-4-(((1,6-dimethyl-2-oxo-1,2-dihydropyridin-4-yl)oxy)methyl)-2-azabicyclo[2.1.1]hexane-2-carboxamide], the IC50 at Human Factor XIIa is 0.001 to 0.01 µM; at Plasma Kallikrein it was 3 to 10 µM; on Plasmin, 10 to 40 µM; on Thrombin, more than 40 µM; at FXa, 1 to 3 µM; against Trypsin it was 10 to 40 µM. The compound also showed an IC50 on KLK1 of 3 to 10 µM.
